Test results reported in ChEMBL document CHEMBL4837255, “Overcoming the Pregnane X Receptor Liability: Rational Design to Eliminate PXR-Mediated CYP Induction” (ACS Med Chem Lett, 2021).
Each block holds one compound with its values, some of them ahead of it.

Experiments:
PXR (NR1I2) = biological target: T1, PXR (NR1I2) (Homo sapiens, UniProt O75469); assay: Activation of full length human PXR expressed in human HepG2 cells co-expressing luciferase of CYP3A4 promoter transcription assessed as increase of luciferase activity at 50 uM preincubated for 24 hrs followed by addition of luciferase substrate and measured by hPXR Gene reporter assay relative to control; assay type: ADME, cell-based
T1 sequence (O75469 whole entry): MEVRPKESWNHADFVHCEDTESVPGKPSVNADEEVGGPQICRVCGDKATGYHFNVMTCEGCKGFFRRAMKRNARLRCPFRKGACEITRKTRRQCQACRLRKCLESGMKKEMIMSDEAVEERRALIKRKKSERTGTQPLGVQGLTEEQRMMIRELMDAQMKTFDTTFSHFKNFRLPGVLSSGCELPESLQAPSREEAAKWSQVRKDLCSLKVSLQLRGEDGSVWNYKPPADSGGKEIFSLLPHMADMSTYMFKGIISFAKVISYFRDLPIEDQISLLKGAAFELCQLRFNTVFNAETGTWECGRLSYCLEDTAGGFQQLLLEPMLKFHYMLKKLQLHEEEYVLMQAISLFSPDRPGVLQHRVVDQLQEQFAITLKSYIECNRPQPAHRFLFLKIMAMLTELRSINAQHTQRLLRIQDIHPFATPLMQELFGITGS

[1] = biological target: T2, Nuclear receptor subfamily 1 group I member 2 (Homo sapiens, UniProt O75469); assay: Activation of full length human PXR expressed in human HepG2 cells co-expressing luciferase of CYP3A4 promoter transcription assessed as increase of luciferase activity preincubated for 24 hrs followed by addition of luciferase substrate and measured by hPXR Gene reporter assay; assay type: ADME, cell-based
T2 sequence (O75469 whole entry): T1 sequence (O75469 whole entry)

CYP3A4 = CYP3A4 (Homo sapiens, UniProt P08684); assay: Induction of CYP3A4 in human hepatocytes; assay type: ADME, cell-based, Liver
[2] = AUC (0 to t) in rat at 300 mg/kg/day measured after 1 day; assay type: ADME, organism-based; design: dose 300 mg/kg/day, time 1 day; conditions: in vivo
[3] = AUC (0 to t) in mouse at 2000 mg/kg/day, po measured after 1 day; assay type: ADME, organism-based; design: time 1 day, dose 2000 mg/kg/day; conditions: in vivo
[4] = AUC (0 to t) in mouse at 300 mg/kg/day, po measured after 1 day; assay type: ADME, organism-based; design: time 1 day, dose 300 mg/kg/day; conditions: in vivo
[5] = Cmax in rat at 300 mg/kg/day measured after 1 day; assay type: ADME, organism-based; design: dose 300 mg/kg/day, time 1 day; conditions: in vivo
[6] = Cmax in mouse at 300 mg/kg/day, po measured after 1 day; assay type: ADME, organism-based; design: route oral, dose 300 mg/kg/day, time 1 day; conditions: in vivo
[7] = AUC (0 to t) in mouse at 1000 mg/kg/day, po measured after 10 days; assay type: ADME, organism-based; design: time 10 day, dose 1000 mg/kg/day; conditions: in vivo
[8] = Cmax in rat at 300 mg/kg/day measured after 10 days; assay type: ADME, organism-based; design: time 10 day, dose 300 mg/kg/day; conditions: in vivo
[9] = Cmax in mouse at 1000 mg/kg/day, po measured after 1 day; assay type: ADME, organism-based; design: route oral, dose 1000 mg/kg/day, time 1 day; conditions: in vivo
[10] = AUC (0 to t) in mouse at 300 mg/kg/day, po measured after 10 days; assay type: ADME, organism-based; design: time 10 day, dose 300 mg/kg/day; conditions: in vivo
[11] = AUC (0 to t) in rat at 300 mg/kg/day measured after 10 days; assay type: ADME, organism-based; design: time 10 day, dose 300 mg/kg/day; conditions: in vivo
[12] = AUC (0 to t) in mouse at 1000 mg/kg/day, po measured after 1 day; assay type: ADME, organism-based; design: time 1 day, dose 1000 mg/kg/day; conditions: in vivo
[13] = Cmax in mouse at 2000 mg/kg/day, po measured after 1 day; assay type: ADME, organism-based; design: route oral, dose 2000 mg/kg/day, time 1 day; conditions: in vivo
[14] = Cmax in mouse at 1000 mg/kg/day, po measured after 10 days; assay type: ADME, organism-based; design: route oral, dose 1000 mg/kg/day, time 10 day; conditions: in vivo
[15] = Cmax in mouse at 2000 mg/kg/day, po measured after 10 days; assay type: ADME, organism-based; design: route oral, time 10 day, dose 2000 mg/kg/day; conditions: in vivo
[16] = Cmax in mouse at 300 mg/kg/day, po measured after 10 days; assay type: ADME, organism-based; design: route oral, time 10 day, dose 300 mg/kg/day; conditions: in vivo
[17] = AUC (0 to t) in mouse at 2000 mg/kg/day, po measured after 10 days; assay type: ADME, organism-based; design: time 10 day, dose 2000 mg/kg/day; conditions: in vivo
[18] = biological target: T3, Extracellular calcium-sensing receptor (Mus musculus, UniProt Q9QY96); assay: Antagonist activity at mouse CaSR; assay type: functional
T3 sequence (Q9QY96 whole entry): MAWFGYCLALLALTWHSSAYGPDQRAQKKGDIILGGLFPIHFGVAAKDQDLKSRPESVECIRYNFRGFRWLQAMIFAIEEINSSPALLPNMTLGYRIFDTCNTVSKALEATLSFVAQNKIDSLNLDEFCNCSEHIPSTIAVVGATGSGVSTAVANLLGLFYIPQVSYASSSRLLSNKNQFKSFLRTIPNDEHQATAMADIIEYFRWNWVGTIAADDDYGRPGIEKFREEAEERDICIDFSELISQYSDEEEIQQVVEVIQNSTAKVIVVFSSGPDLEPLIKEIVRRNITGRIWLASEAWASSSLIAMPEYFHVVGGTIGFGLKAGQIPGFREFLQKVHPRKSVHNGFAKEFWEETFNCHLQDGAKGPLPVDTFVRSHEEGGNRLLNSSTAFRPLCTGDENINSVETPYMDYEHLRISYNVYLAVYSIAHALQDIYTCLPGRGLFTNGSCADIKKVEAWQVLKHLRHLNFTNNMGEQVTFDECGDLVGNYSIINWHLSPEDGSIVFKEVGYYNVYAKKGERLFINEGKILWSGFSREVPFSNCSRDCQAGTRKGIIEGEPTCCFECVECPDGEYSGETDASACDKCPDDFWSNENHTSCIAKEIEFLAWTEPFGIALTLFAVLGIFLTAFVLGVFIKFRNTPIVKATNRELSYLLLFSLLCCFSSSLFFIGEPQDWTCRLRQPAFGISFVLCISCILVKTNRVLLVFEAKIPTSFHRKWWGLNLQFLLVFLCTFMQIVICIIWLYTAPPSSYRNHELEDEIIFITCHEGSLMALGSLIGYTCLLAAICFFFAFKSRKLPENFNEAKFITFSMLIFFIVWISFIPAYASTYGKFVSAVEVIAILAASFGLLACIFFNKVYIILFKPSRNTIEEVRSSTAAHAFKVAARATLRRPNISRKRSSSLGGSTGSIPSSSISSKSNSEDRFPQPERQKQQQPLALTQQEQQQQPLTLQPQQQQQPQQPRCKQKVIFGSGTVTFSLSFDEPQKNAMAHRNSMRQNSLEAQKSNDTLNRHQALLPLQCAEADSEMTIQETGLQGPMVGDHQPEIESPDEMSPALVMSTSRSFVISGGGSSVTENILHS

[19] = AUC (0 to t) in rat at 100 mg/kg/day measured after 1 day; assay type: ADME, organism-based; design: time 1 day, dose 100 mg/kg/day; conditions: in vivo
[20] = Cmax in rat at 100 mg/kg/day measured after 1 day; assay type: ADME, organism-based; design: dose 100 mg/kg/day, time 1 day; conditions: in vivo
[21] = AUC (0 to t) in rat at 100 mg/kg/day measured after 10 days; assay type: ADME, organism-based; design: time 10 day, dose 100 mg/kg/day; conditions: in vivo
[22] = Cmax in rat at 100 mg/kg/day measured after 10 days; assay type: ADME, organism-based; design: time 10 day, dose 100 mg/kg/day; conditions: in vivo
[23] = biological target: T4, Extracellular calcium-sensing receptor (Homo sapiens, UniProt P41180); assay: Antagonist activity at human CaSR in human HEK293 cells measured after 5 mins by FLIPR assay; assay type: functional, cell-based
T4 sequence (P41180 whole entry): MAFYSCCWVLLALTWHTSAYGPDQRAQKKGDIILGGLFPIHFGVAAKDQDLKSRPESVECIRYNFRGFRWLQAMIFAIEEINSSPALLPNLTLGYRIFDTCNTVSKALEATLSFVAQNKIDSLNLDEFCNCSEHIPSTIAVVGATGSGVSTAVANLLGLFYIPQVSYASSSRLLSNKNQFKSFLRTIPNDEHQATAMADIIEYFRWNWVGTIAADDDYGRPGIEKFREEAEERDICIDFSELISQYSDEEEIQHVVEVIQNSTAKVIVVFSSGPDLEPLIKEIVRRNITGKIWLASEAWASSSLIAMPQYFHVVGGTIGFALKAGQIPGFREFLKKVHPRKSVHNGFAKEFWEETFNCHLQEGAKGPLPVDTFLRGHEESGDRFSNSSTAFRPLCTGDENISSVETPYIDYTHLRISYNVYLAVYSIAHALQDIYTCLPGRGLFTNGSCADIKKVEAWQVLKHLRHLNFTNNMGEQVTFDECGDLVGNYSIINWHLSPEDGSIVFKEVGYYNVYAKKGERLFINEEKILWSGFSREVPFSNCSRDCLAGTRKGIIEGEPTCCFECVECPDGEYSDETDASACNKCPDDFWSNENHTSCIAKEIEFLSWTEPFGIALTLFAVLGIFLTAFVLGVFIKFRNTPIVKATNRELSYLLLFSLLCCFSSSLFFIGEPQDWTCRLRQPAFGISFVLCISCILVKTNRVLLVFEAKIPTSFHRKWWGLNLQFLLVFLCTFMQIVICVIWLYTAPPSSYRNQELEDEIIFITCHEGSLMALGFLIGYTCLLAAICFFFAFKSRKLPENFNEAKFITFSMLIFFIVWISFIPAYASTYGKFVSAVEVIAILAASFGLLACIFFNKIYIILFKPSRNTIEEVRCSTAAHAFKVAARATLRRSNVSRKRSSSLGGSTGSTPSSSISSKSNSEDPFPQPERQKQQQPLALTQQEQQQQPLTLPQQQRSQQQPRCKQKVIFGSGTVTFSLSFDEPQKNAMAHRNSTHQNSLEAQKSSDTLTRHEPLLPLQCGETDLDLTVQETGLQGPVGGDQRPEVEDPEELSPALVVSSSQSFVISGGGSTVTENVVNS

Sequence of CYP3A4 (P08684 whole entry): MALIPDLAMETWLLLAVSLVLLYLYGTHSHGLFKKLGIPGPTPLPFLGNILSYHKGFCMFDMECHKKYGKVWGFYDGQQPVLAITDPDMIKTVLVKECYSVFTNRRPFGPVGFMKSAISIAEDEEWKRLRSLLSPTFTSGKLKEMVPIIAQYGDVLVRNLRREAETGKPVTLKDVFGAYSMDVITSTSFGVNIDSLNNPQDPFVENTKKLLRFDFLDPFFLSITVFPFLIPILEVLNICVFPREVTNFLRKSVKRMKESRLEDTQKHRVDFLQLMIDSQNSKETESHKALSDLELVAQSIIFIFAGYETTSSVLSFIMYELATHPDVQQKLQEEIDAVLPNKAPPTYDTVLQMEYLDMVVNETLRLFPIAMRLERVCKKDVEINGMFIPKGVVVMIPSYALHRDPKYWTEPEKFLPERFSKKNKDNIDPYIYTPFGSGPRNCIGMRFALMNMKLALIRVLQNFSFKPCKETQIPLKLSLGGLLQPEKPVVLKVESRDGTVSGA

SMILES: Cc1ccc(-c2nc(CCc3ccccc3)c(-c3cccc(F)c3O)nc2C)s1
Emax at 24 h, 50 µM (PXR (NR1I2)): 110% | EC50 [1]: 3.2 µM

SMILES: Cc1nc(-c2cccc(F)c2O)n(CCc2ccccc2)c(=O)c1-c1ccc(-c2ccccc2)s1
Emax at 24 h, 50 µM (PXR (NR1I2)): 60% | EC50 [1]: 8 µM

SMILES: Cc1nc(-c2cccc(F)c2O)n(CCc2ccccc2)c(=O)c1Cc1ccccc1
Emax at 24 h, 50 µM (PXR (NR1I2)): 250% | EC50 [1]: 1 µM

SMILES: Cc1nc(-c2cccc(F)c2O)n(CCc2ccccc2)c(=O)c1-c1cc(-c2ccccn2)c(C)s1
AUC(0-t) at 24 h [19]: 29500 ng·h/mL | Cmax [20]: 8900 ng/mL | Emax at 24 h, 50 µM (PXR (NR1I2)): 9% | EC50 [1]: > 50 µM | AUC(0-t) at 240 h [21]: 41100 ng·h/mL | Cmax [22]: 12000 ng/mL

SMILES: Cc1nc(-c2cccc(F)c2O)n(CCc2ccccc2)c(=O)c1-c1ccc(-c2ccccn2)s1
Emax at 24 h, 50 µM (PXR (NR1I2)): 36% | EC50 [1]: 5 µM

More lines, now with the values ahead:

Emax at 24 h, 50 µM (PXR (NR1I2)): 40% | EC50 [1]: > 10 µM
SMILES: Cc1ncc(-c2c(C)nc(-c3cccc(F)c3O)n(CCc3ccccc3)c2=O)s1

Emax (CYP3A4): 10% | AUC(0-t) at 24 h [2]: 2500 ng·h/mL | AUC(0-t) at 24 h [3]: 15100 ng·h/mL | AUC(0-t) at 24 h [4]: 2880 ng·h/mL | Cmax [5]: 330 ng/mL | Cmax [6]: 980 ng/mL | Emax at 24 h, 50 µM (PXR (NR1I2)): 122% | EC50 [1]: 2.5 µM | AUC(0-t) at 240 h [7]: 2850 ng·h/mL | Cmax [8]: 360 ng/mL | Cmax [9]: 2960 ng/mL | AUC(0-t) at 240 h [10]: 1260 ng·h/mL | AUC(0-t) at 240 h [11]: 1800 ng·h/mL | AUC(0-t) at 24 h [12]: 10800 ng·h/mL | Cmax [13]: 3600 ng/mL | Cmax [14]: 680 ng/mL | Cmax [15]: 480 ng/mL | Cmax [16]: 820 ng/mL | AUC(0-t) at 240 h [17]: 1580 ng·h/mL | IC50 [18]: 51 nM
SMILES: Cc1ccc(-c2c(C)nc(-c3cccc(F)c3O)n(CCc3ccccc3)c2=O)s1

Emax at 24 h, 50 µM (PXR (NR1I2)): 31% | EC50 [1]: 13 µM | IC50 [23]: > 10 µM
SMILES: Cc1nc(-c2cccc(F)c2O)n(CCc2ccccc2)c(=O)c1-c1ccc(CO)s1
